Assay results as given in the NIST ThermoML archive (doi:10.1016/j.jct.2016.12.023).
± gives the expanded uncertainty stated by the source.

Assay: mn = molality of the nth substance listed, in mol/kg
Conditions: 298.15 K, 101.33 kPa, Liquid, Vibrating tube method

OC[C@H]1O[C@@H]2O[C@H]3[C@H](O)[C@@H](O)[C@@H](O[C@H]4[C@H](O)[C@@H](O)[C@@H](O[C@H]5[C@H](O)[C@@H](O)[C@@H](O[C@H]6[C@H](O)[C@@H](O)[C@@H](O[C@H]7[C@H](O)[C@@H](O)[C@@H](O[C@H]1[C@H](O)[C@H]2O)O[C@@H]7CO)O[C@@H]6CO)O[C@@H]5CO)O[C@@H]4CO)O[C@@H]3CO [α-cyclodextrin] + O
mass density (m1 = 0.00975): 1000.6 ± 2 kg/m3
mass density (m1 = 0.01763): 1003.4 ± 2 kg/m3
mass density (m1 = 0.02931): 1007.6 ± 2.1 kg/m3
mass density (m1 = 0.03389): 1009.2 ± 2.1 kg/m3
mass density (m1 = 0.04348): 1012.5 ± 2.2 kg/m3
mass density (m1 = 0.05233): 1015.6 ± 2.3 kg/m3
mass density (m1 = 0.06207): 1018.9 ± 2.4 kg/m3
mass density (m1 = 0.07117): 1022 ± 2.5 kg/m3
mass density (m1 = 0.0783): 1024.4 ± 2.5 kg/m3
mass density (m1 = 0.09004): 1028.3 ± 2.7 kg/m3
mass density (m1 = 0.09733): 1031 ± 2 kg/m3
mass density (m1 = 0.09764): 1030.7 ± 2 kg/m3
mass density (m1 = 0.09915): 1031.6 ± 2 kg/m3
mass density (m1 = 0.09944): 1031.7 ± 2 kg/m3
mass density (m1 = 0.1001): 1031.6 ± 2 kg/m3
